Test results reported in article PMC6770581, “New Thalidomide-Resembling Dicarboximides Target ABC50 Protein and Show Antileukemic and Immunomodulatory Activities” (Biomolecules, 2019).

Legend:
MOLT-4 cells = assay: MTT cytotoxicity assay, MOLT-4; format: cell-based; details: Homo sapiens, 48 h, mean ± SD
Description: (§1) Human umbilical vein endothelial cells (purchased from Life Technologies, Carlsbad, CA, USA) were cultured according to the manufacturer’s instructions in Medium 200 supplemented with Low Serum Growth Supplement. 1 × 10^4 cells were seeded on each well on a 96-well plate (Nunc, Roskilde, Denmark). The HeLa (human cervix carcinoma, cat. #93021013), CFPAC (human pancreatic adenocarcinoma, cat. #91112501), K562 (chronic myelogenous leukemia, cat. #89121407), HL-60 (acute myelogenous leukemia, cat. #98070106), and MOLT-4 (Human acute T lymphoblastic leukemia, cat. #85011413) cells were purchased from European Collection of Authenticated Cell Cultures (ECACC). They were cultured in an RPMI 1640 medium supplemented with antibiotics (streptomycin, penicillin) and 10% fetal calf serum (20% for HL60), in a 5% CO2-95% air atmosphere. 7 × 10^3 cells were seeded on each well on a 96-well plate (Nunc). 24 hours later the cells were exposed to the test compounds. The aliquots of stock solutions of the test compounds (freshly prepared in DMSO) were added to the cell cultures to yield final concentrations of 1, 10^−1, 10^−2, 10^−3, 10^−4, and 10^−5 mM. The concentration of DMSO in the cell culture medium was 1%. The IC50 value (the concentration of a test compound required to reduce the cell survival fraction to 50% of the control) was calculated from a dose-response curve and used as a measure of cellular sensitivity to a given treatment. The IC50 values are given as means (± standard deviation (SD)) from 2 independent experiments with 4 technical replicates. The cytotoxicity of all compounds was determined by the MTT (3-(4,5-dimethylthiazol-2-yl)-2,5-diphenyltetrazolium bromide) assay (Sigma, St. Louis, MO, USA). Briefly, after 24 h or 48 h of incubation with a given compound, the cells were treated with the MTT reagent and incubation was continued for 2 h. MTT-formazan crystals were dissolved in 20% SDS and 50% DMF at pH 4.7 and VIS light absorption was measured at 570 and 650 nm on a microplate reader FLUOstar Omega (BMG Labtech, Offenburg, Germany). As a control (100% viability), cells grown in the presence of 1% DMSO were used.

CFPAC cells = assay: MTT cytotoxicity assay, CFPAC; format: cell-based; details: Homo sapiens, 48 h, mean ± SD
Description: as §1

IKZF1 and IKZF3 = IKZF1 and IKZF3 level by immunoblotting in MOLT-4 cells; format: cell-based, human; details: MOLT-4, 48 h, 3 (5 µM), 5 (10 µM), 6 (2 µM)
Description: K562 or MOLT4 cells were seeded on 6-well plate (2 × 10^6 cells/well) in a RPMI 1640 medium containing 10% FBS. MOLT4 cells were exposed to 1% DMSO (vehicle control), test compounds 6 (2 µM), 3 (5 µM), 5 (10 µM). Similarly, K562 cells were exposed to 1% DMSO, test compounds 6 (1 µM), 3 (1 µM), 5 (1 µM) for 48 h. Cells treated with 100 µM thalidomide or 10 µM lenalidomide served as positive controls. After incubation, cells were centrifuged (600 rpm, 6 min, 24 °C), washed once with PBS and lysed in 20 mM Tris (pH 7.2) containing 1% Triton X-100 supplemented with Complete® protease inhibitors cocktail (Roche). The levels of IKZF1 and IKZF3 were assessed by immunoblotting (IB).
Cells were lysed in TBS buffer containing 1% Triton X-100 and Complete® protease inhibitor cocktail (Roche) for 15 min on ice with occasional vortexing. Insoluble material was centrifuged (12,000 rpm, 15 min, 4 °C) and supernatants were collected. Total protein concentration was measured with DC Protein Assay (Bio-Rad, Hercules, CA, USA). Cell lysates containing 30 µg of total protein were mixed with Laemli buffer supplemented with SDS and β-mercaptoethanol, denatured (10 min, 95 °C) and subjected to sodium dodecyl sulfate polyacrylamide gel electrophoresis (SDS-PAGE) electrophoresis (4% stacking and 10% resolving gels). Resolved proteins were electrotransferred (semi-dry, 90 min, 1.5 mA/cm^2) to a 0.45 µm nitrocellulose membrane (Thermo Scientific, Waltham, MA, USA). Membranes were blocked for 2 hours in TBST buffer (20 mM Tris-HCl pH 7.5, 0.9% NaCl, 0.1% Tween 20) containing 5% BSA (BioShop, Burlington, ON, Canada) and probed with primary antibodies (overnight at 4 °C) diluted in TBST buffer with 0.5% BSA. Tubulin served as a loading control for IB experiments. Anti IKZF3 (rabbit monoclonal, dilution 1:500), anti IKZF1 (rabbit polyclonal, dilution 1:500) were from Abcam. Anti IRF4 (rabbit polyclonal, dilution 1:500) were from Cell Signaling Technology. […] Protein bands intensities were analysed using Image Quant (version 5.0, GE Healthcare Life Sciences, Pittsburgh, PA, USA).

HeLa cells = details: 48 h, MTT, mean ± SD; cited from earlier work
K562 cells = details: 48 h, MTT, mean ± SD; cited from earlier work
HL-60 cells = details: 48 h, MTT, mean ± SD; cited from earlier work
[1] = test system: HUVEC (human umbilical vein endothelial cells); details: 48 h, MTT, mean ± SD; cited from earlier work

| Compound | IC50 (MOLT-4 cells) [µM] | IC50 (CFPAC cells) [µM] | level of IKZF1 and IKZF3 (immunoblotting) (IKZF1 and IKZF3) | IC50 (HeLa cells) [µM] | IC50 (K562 cells) [µM] | IC50 (HL-60 cells) [µM] | IC50 [1] [µM] |
| --- | --- | --- | --- | --- | --- | --- | --- |
| CN(C)CCN1C(=O)C2C(C1=O)C1(c3ccccc3)CC2(c2ccccc2)C(c2ccccc2)=C1c1ccccc1 (stereo not drawn) [Compound 6] | 4 ± 0.2 | 40 ± 3.1 | significant diminution | 1 ± 0.2 | 1 ± 0.3 | 5 ± 0.24 | > 100 |
| CCC12C(=O)C(CC)(C(c3ccccc3)=C1c1ccccc1)C1C(=O)N(CCN3CCCCC3)C(=O)C12 (stereo not drawn) [Compound 3] | 9 ± 0.6 | > 1000 | modest reduction | > 100 | 2 ± 0.31 | > 100 | > 100 |
| CCC12C(=O)C(CC)(C(c3ccccc3)=C1c1ccccc1)C1C(=O)N(CC(O)CNC(C)C)C(=O)C12 (stereo not drawn) [Compound 5] | 20 ± 2.3 | > 1000 | significant diminution | > 100 | 1 ± 0.05 | 2 ± 0.05 | > 100 |
